Data on 10 compounds can be found in paper PMC3514216, “SRC Homology 2 Domain Binding Sites in Insulin, IGF-1 and FGF receptor mediated signaling networks reveal an extensive potential interactome” (Cell Communication and Signaling : CCS, 2012).

Test [1] concerns the target T1, Ptpn11_N SH2 domain (Homo sapiens, UniProt Q06124).
T1 sequence (Q06124 6-102 limits assumed): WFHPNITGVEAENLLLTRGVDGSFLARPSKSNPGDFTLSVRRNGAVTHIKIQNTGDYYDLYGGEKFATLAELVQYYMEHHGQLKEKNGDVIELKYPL
Briefly: Fluorescence polarization solution binding. Particulars: Rhodamine B-labeled peptide, GST-SH2, Beacon 2000, read-out: Affinity (KD). An excerpt:
To verify the binding results obtained from addressable peptide arrays we employed an orthogonal method of determining SH2 interactions with peptide ligands. We measured the dissociation constants of 60 binary SH2-peptide pairs in solution by fluorescence polarization (Table 2, Additional file 2: Figures S3A-C).
Peptides were synthesized using FMOC-chemistry onto pre-loaded tenta-gel resins. Peptides were then labeled with Rhodamine B (Abbey Color) and then cleaved using trifluoroacetic acid. Peptides were lyophilized and then purified using a LC/MS (Agilent 2100). Dissociation constants were measured using the Beacon 2000 (Invitrogen) as previously described.
Binding Affinities determined by Fluorescence Polarization. Rhodamine B-labeled peptides were mixed with varying concentrations of GST-tagged SH2 domains. Fluorescence polarization measurements were read on a Beacon 2000 (Invitrogen). The curves were fit to a Michaelis-Menten equation to calculate the dissociation constant, KD. […] (C) Affinity measurements that fell below the 2X mean intensity and were considered array negative on the SPOT array.

For the next test, the target named is Crk SH2 domain (Homo sapiens, UniProt P46108). Also on record: method as in earlier work. Particulars: SH2 protein microarray; N.B. = non binding; read-out: Protein Microarray (Macbeath) – KD; cited from earlier work.
Test [2] addresses T1, Ptpn11_N SH2 domain. Also on record: method as in 5 sources, one per row (each row's own in cited_ref): ref [107] = [107]; PMID 8144631; Case RD Piccione E Wolf G Benett AM Lechleider RJ Neel BG Shoelson SE SH-PTP2/Syp SH2 domain binding specificity is defined by direct interactions with platelet-derived growth factor beta-receptor, ep ||| ref [107, 108] = [107]; PMID 8144631; Case RD Piccione E Wolf G Benett AM Lechleider RJ Neel BG Shoelson SE SH-PTP2/Syp SH2 domain binding specificity is defined by direct interactions with platelet-derived growth factor beta-receptor, ep || [108]; PMID 7504175; doi:10.1128/mcb.13.12.7418-7428.1993; Sun XJ Crimmins DL Myers MG Jr Miralpeix M White MF Pleiotropic insulin signals are engaged by multisite phosphorylation of IRS-1 Mol Cell Biol 1993 13 7418 7428 7504175 10.1128/mcb.13.12.7418-7428.19 ||| ref [95, 108, 110] = [95]; PMID 9422724; doi:10.1074/jbc.273.2.729; Ottinger EA Botfield MC Shoelson SE Tandem SH2 domains confer high specificity in tyrosine kinase signaling J Biol Chem 1998 273 729 735 9422724 10.1074/jbc.273.2.729 || [108]; PMID 7504175; doi:10.1128/mcb.13.12.7418-7428.1993; Sun XJ Crimmins DL Myers MG Jr Miralpeix M White MF Pleiotropic insulin signals are engaged by multisite phosphorylation of IRS-1 Mol Cell Biol 1993 13 7418 7428 7504175 10.1128/mcb.13.12.7418-7428.19 || [110]; PMID 9756938; doi:10.1074/jbc.273.41.26908; Myers MG Jr Mendez R Shi P Pierce JH Rhoads R White MF The COOH-terminal tyrosine phosphorylation sites on IRS-1 bind SHP-2 and negatively regulate insulin signaling J Biol Chem 1998 273 26908 26914 9 ||| ref 107 (IRS-1 Y896 also 108) ||| ref 95, 108, 110 = [95]; PMID 9422724; doi:10.1074/jbc.273.2.729; Ottinger EA Botfield MC Shoelson SE Tandem SH2 domains confer high specificity in tyrosine kinase signaling J Biol Chem 1998 273 729 735 9422724 10.1074/jbc.273.2.729 || [108]; PMID 7504175; doi:10.1128/mcb.13.12.7418-7428.1993; Sun XJ Crimmins DL Myers MG Jr Miralpeix M White MF Pleiotropic insulin signals are engaged by multisite phosphorylation of IRS-1 Mol Cell Biol 1993 13 7418 7428 7504175 10.1128/mcb.13.12.7418-7428.19 || [110]; PMID 9756938; doi:10.1074/jbc.273.41.26908; Myers MG Jr Mendez R Shi P Pierce JH Rhoads R White MF The COOH-terminal tyrosine phosphorylation sites on IRS-1 bind SHP-2 and negatively regulate insulin signaling J Biol Chem 1998 273 26908 26914 9. Particulars: ref 107 (IRS-1 Y896 also 108); read-out: Relative affinity (IC50); cited from earlier work.

A further test concerns Ptpn11_C SH2 domain. Kind of test: SPOT peptide array. In kind it is binding. The note with it: GST-SH2 0.25 μM. An excerpt: (§1) The use of addressable peptide arrays is a reproducible and semi-quantitative approach that has been extensively validated for studying protein interactions with peptide ligands. To investigate connections between SH2 domain proteins and their putative phosphorylated docking sites on cell surface receptors, we developed addressable arrays consisting of 192 phosphotyrosine peptides. This peptide set was assembled using 71 phosphotyrosine peptide motifs corresponding to all of the cytoplasmic tyrosine residues within the FGF receptors (FGFR1-4), insulin receptor (InsR) and IGF-1 receptor (IGF-1R) (Figure 1A). Activation of these receptors results in the phosphorylation of associated scaffold proteins, and so 75 phosphotyrosine peptides corresponding to a comprehensive list of tyrosine residues within insulin receptor substrates (IRS-1 and IRS-2) and fibroblast receptor substrates (FRS-2 and FRS-3) were included. In addition, 33 phosphotyrosine peptides were incorporated from the downstream signaling proteins PLC-γ1, p130Cas (BCAR1) and p62DOK1. […] These control peptides provide a reference and establish the empirical cut-off for designated binding interactions (Table 1). No discrimination was made against peptides on the basis of reported phosphorylation state in order to examine a diverse and unbiased set of motifs. The resulting set of 192 phosphotyrosine peptides and their corresponding position in the proteins of origin is noted in Additional file 1: Table S1. Addressable arrays were synthesized as membrane-bound 11-mer peptides using the SPOT synthesis technique. While the majority of SH2 domains recognize residues C-terminal to the phosphotyrosine in their cognate peptide ligands, additional contacts between SH2 domains and residues N-terminal to the phosphotyrosine are observed for the SH2 domain of Sh2d1a (SAP) and cannot be ruled out in other cases. Peptides were synthesized with six flanking residues C-terminal to the phosphotyrosine and four residues N-terminal to the phosphotyrosine.
(§2) SH2 domains were arrayed as GST fusion proteins and detected using anti-GST primary antibodies and near-infrared labeled secondary antibodies. In an effort to present a dataset with minimal false positives, we chose an empirical cutoff based on the array average across all peptide spots to classify interactions (Figure 1A). In cases where the intensity of the signal for an individual SH2-domain binding event exceeded the mean intensity of all the peptides on the membrane by three-fold were scored as “array positives” [22]. Non-binding was judged in cases where the intensity of a spot was less than the mean intensity of all spots on the membrane and these were scored as “array negatives”. Peptides with signal intensities between 1X and 3X mean were scored as “indeterminate” and ascribed as neither array positive binding interactions nor array-negative non-binders. […] This signature may be indicative of promiscuity differences between phosphopeptides or there may be a subset of peptides which interact in a nonspecific fashion with either the GST fusion tag or one of the antibodies used for detection, resulting in false positives. Consistent with our goal of reducing the errors associated with identifying false-positives, we probed three separate arrays with three separate preps of the GST fusion tag alone. Potentially non-specificly interacting peptides (so-called ‘sticky’ peptides) were identified as any that bound to GST with above mean intensity in two out of three separate trials. This approach identifies any peptides which interact with GST or either of the recognition antibodies, a known confounding factor for downstream analysis. This conservative approach allows us to score many significant peptides as ‘binders’ which may have been indeterminate before when incorporating the ‘sticky’ peptides into the array average. […]

The target of test [3] is T1, Ptpn11_N SH2 domain. Kind of test: SPOT peptide array. It is filed as binding. The note with it: GST-SH2 0.25 μM.
Description: as §1, §2

Another test has as its system Fyn SH2 domain. Kind of test: SPOT peptide array. Particulars: GST-SH2 0.25 μM. In kind it is binding.
Description: as §1, §2

Test [4] addresses T2, PI3K1_N SH2 domain (Homo sapiens, UniProt P27986). Also on record: method as in PMID 8384875. Particulars: cited from earlier work.
Test [5] deals with T2, PI3K1_N SH2 domain. Briefly: SPOT peptide array. It is filed as binding. The note with it: GST-SH2 0.25 μM, membrane-bound peptide, 1 mM DTT, LiCor read-out.
Description: as §1, §2

The target in a further test is T3, Abl2 SH2 domain (Homo sapiens, UniProt P42684).
T3 sequence (P42684 173-263 limits assumed): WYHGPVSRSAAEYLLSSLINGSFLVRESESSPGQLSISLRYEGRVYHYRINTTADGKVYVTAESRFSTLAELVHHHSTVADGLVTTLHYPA
Details: method as in earlier work. The note with it: SH2 protein microarray; N.B. = non binding; read-out: Protein Microarray (Macbeath) – KD; cited from earlier work.

The next test concerns the target CrkL SH2 domain (Homo sapiens, UniProt P46109). Details: method as in earlier work. The note with it: SH2 protein microarray; N.B. = non binding; read-out: Protein Microarray (Macbeath) – KD; cited from earlier work.
The subject of another test is panel of 50 SH2 domains. Briefly: SPOT peptide array probed with each of 50 GST-SH2 domains. In kind it is binding. The note with it: SH2 domains with intensity >3X array mean; GST-SH2 0.25 μM, 1 mM DTT. The method in brief:
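Each GST-fused SH2 domain was overlaid on 192 membrane-synthesized pTyr peptides (11-mers, 4 N-terminal and 6 C-terminal flanking residues) and read with anti-GST and near-infrared secondary antibodies. Binding called relative to membrane mean intensity (>3× positive, <1× negative); GST-only probes defined nonspecific peptides.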

Test [6] concerns Plcγ SH2 domain (N or C not specified). Kind of test: SPOT peptide array. It is filed as binding. The note with it: GST-SH2 0.25 μM, membrane-bound peptide, 1 mM DTT, LiCor read-out.
Description: as §1, §2

The mark [7] stands for this setting: membrane-bound peptide, 1 mM DTT, LiCor read-out.
Setting [8] is: spot intensity as factor of array mean.

Some results are limits rather than exact numbers.

Chain of Crk SH2 domain (P46108 13-118 limits assumed): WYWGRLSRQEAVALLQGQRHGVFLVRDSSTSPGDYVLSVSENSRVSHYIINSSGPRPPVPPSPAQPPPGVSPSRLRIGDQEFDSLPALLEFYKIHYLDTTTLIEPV
T2 sequence (P27986 333-428 limits assumed): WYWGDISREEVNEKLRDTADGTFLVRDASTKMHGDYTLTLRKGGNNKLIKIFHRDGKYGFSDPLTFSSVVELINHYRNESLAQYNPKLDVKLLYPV
Chain of CrkL SH2 domain (P46109 14-102 limits assumed): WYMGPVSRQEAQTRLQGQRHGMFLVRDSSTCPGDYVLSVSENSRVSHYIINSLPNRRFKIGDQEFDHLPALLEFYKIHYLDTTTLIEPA

As to `CC(C)[C@H](NC(=O)[C@H](CC(=O)O)NC(=O)[C@H](CCC(=O)O)NC(=O)[C@H](C)N)C(=O)N[C@@H](Cc1ccc(OP(=O)(O)O)cc1)C(=O)N[C@@H](CC(=O)O)C(=O)N[C@H](C(=O)N1CCC[C@H]1C(=O)N1CCC[C@H]1C(=O)N1CCC[C@H]1C(=O)N[C@@H](C)C(=O)O)C(C)C` [AEDVpYDVPPPA], on Ptpn11_N SH2 domain [1], the Kd is above 50 µM.

On to “ARDIHHIDYpYKKTTNGRD (ARDIHHIDYYKKTTNGRD)”, for which the Kd with Crk SH2 domain is 1.11 µM.

Consider “DLSApYASISFQ (DLSAYASISFQ) [11-mer phosphotyrosine peptide, IRS-1 (Y1229)]”, for which the 50% inhibitory concentration (IC50) with Ptpn11_N SH2 domain [2] was 25 ± 4.2 µM.

Turning to “DLSApYASISFQ [11-mer phosphotyrosine peptide, IRS-1 (Y1229)]”, the Array positive entry with Ptpn11_C SH2 domain (setting [7]), on Ptpn11_N SH2 domain [3] (setting [7]) and with Fyn SH2 domain (setting [7]) was “No (Peptide spots with average intensity values between 1X-3X the array mean were defined as ‘indeterminate’. Those with intensities below 1X mean were defined as array negative)” each time. For the same compound, the “Peptide array intensity (X mean)” value was found to be 1.59 X Mean in the test with Ptpn11_C SH2 domain (setting [8]), 2.78 X Mean on Ptpn11_N SH2 domain [3] (setting [8]) and 0.48 X Mean in the test with Fyn SH2 domain (setting [8]).

Take “DPNGpYMMMSPS (DPNGYMMMSPS) [11-mer phosphotyrosine peptide, IRS-1 (Y662)]”: the half-inhibitory concentration (IC50) with Ptpn11_N SH2 domain [2] is 96 ± 13 µM.

As for “ELSNpYICMGGK (ELSNYICMGGK) [11-mer phosphotyrosine peptide, IRS-1 (Y465)]”, the IC50 with Ptpn11_N SH2 domain [2] was 48 ± 16 µM.

On to “GSGDpYMPMSPK [11-mer phosphotyrosine peptide, printed as IRS-1 (Y612); footnote says Y632]”, for which the “Relative affinity (ID50)” value at PI3K1_N SH2 domain [4] is listed as “ID50 = 0.7-1.1 μM”. For the same compound, the Array positive entry at PI3K1_N SH2 domain [5] was “No (Peptide spots with average intensity values between 1X-3X the array mean were defined as ‘indeterminate’. Those with intensities below 1X mean were defined as array negative)”.

For “SIEEpYTEMMPA (SIEEYTEMMPA) [11-mer phosphotyrosine peptide, IRS-1 (Y551)]”, the 50% inhibitory concentration (IC50) in the test with Ptpn11_N SH2 domain [2] is 11 ± 1 µM.

For the compound “SSKDLVSCApYQVARGMED (SSKDLVSCAYQVARGMED)”, the equilibrium dissociation constant (Kd) with Abl2 SH2 domain was 0.012 µM; in the test with CrkL SH2 domain, 0.24 µM; with Crk SH2 domain it was 0.26 µM.

“VSEEYLDLRLT [11-mer peptide, FGFR4 (754)]”: the “Other SH2 domains bound (additional array-positive SH2 domains)” value with panel of 50 SH2 domains is “SHD”. Also, the Array positive entry in [6] is recorded as “No (Peptide spots with average intensity values between 1X-3X the array mean were defined as ‘indeterminate’. Those with intensities below 1X mean were defined as array negative)”.

One may read the Kd as the equilibrium constant for the complex coming apart. What is called IC50 is the concentration needed to halve the response being measured.
